Measurements reported in paper PMC11984924, “Dipeptidic Phosphonates: Potent Inhibitors of Pseudomonas aeruginosa Elastase B Showing Efficacy in a Murine Keratitis Model” (Advanced Science, 2025).

How the values were obtained:
[1] = Tolerability study in male CD1 mice, repeated TID intravenous dosing; assay type: in vivo; conditions: mouse, 300 and 600 mg/kg/day, 3 days
Method: Table S8: Percent (%) inhibition of the metabolic activity of three human cell lines HepG2 (hepatocellular carcinoma cells), HEK293 (human embryonic kidney 293 cells) and A549 (lung carcinoma epithelial cells). Results are means and SD of at least two independent ex periments.
3.10 Evaluation of Zebrafish embryo toxicity
The experiment was performed according to a procedure described in the literature with minor modifications using zebrafish embryos of the AB wild -type line at 1 day post fertilization (dpf). A detailed protocol has been given in our recent publication.[16]
Starting exposure ar 2 dpf. Ten larvae were tested for each condition. Dpf: days post fertilization.
3.11 Tolerability study in male CD1 mice
This in vivo experiment was carried out at the CRO Selvita (Zagreb, Croatia). The study was performed in an AAALAC I- approved Facility. The standard study plan relating to this study was reviewed by the Ethics Committee (CARE- Zagreb) as required by International Laws/Regulations and Croatian Low on Animal Welfare (“The Animal Protection Act”, Official Gazette, NN 135/06 and NN 37/13) and Animal Welfare Officer. Animals were kept in solid […]
The observations and examinations that were made, comprise clinical signs, body weight, food consumption, macroscopy at termination and organ weights. Mortality was recorded twice a day, i.e. in the morning and at the end of the working day.

[2] = (R)-30 levels in serum of keratitis mice; assay type: in vivo; conditions: C57BL/6, mouse, 5 µL of 1 mg/mL (R)-30 per dose (nine doses, every 8 h), keratitis mice after topical ocular dosing
Method: 3.15 Bioanalytical sample preparation of keratitis samples for determination of
concentration of ( R)-30 in eye and serum
All PD serum and eye homogenate samples were analyzed via HPLC -MS/MS using an Agilent
1290 Infinity II HPLC system and coupled to an AB Sciex QTrap6500+ mass spectrometer.
First, a calibration curve was prepared by spiking different concentrations of (R)-30 into the
respective matrix (mouse serum (pooled, from CD -1 mice) for plasma samples, isotonic
sodium chloride solution for eye homogenate samples). Caffeine was used as an internal
standard. In addition, quality control samples (QCs) were prepared for (R)-30 with the
respective matrix. The following extraction procedure was used: 7.5 μL of a serum sample
(calibration samples, QCs or PD samples) was extracted with 37.5 μL of methanol containing
12.5 ng/mL of caffeine as internal standard for 5 min at 2,000 r pm on an Eppendorf MixMate®
vortex mixer. Then samples (serum) were spun down at 13,000 rpm for 5 min. Supernatants
were transferred to standard HPLC-glass vials. 50 μL of an eye homogenate sample […]
standard were analyzed using MultiQuant 3.0 software (AB Sciex). […]
for quantification are marked with a ‘Q’ in the table, the other MS/MS pairs for the respective
compound were used for qualification. Peaks of PD samples were quantified using the
calibration curve. The accuracy of the calibration curve was determined using QC s […]

[3] = system: sodium channel; experiment: SafetyScreen44: sodium channel binding; design: species or system human; conditions: 100 µM
Text: Moreover, we explored the safety profile of frontrunner (R)‐30 in more detail in order to detect additional crucial off‐target interactions. For this purpose, we employed the SafetyScreen44 in vitro panel comprising selected binding, inhibition and uptake assays.^[ [35] ^] The panel is a specialized pharmacological profiling tool that tests compounds against 44 key molecular targets, aiming to identify potential safety risks early in drug discovery. […]
The off-target Safety Screen44TM was performed by the CRO Eurofins Cerep SA (Celle-
L'Evescault, France) according to their protocols.[13] […]
MMP-1 MMP-2 MMP-3 TACE (ADAM17)
Compound [% inhibition at [% inhibition at [% inhibition at [% inhibition at 100

[4] = Stability in mouse liver microsomes; assay type: in vitro ADME; conditions: read-out: Mouse Liver Microsomes t1/2
Method: Samples were stored on ice until the end of the incubation and precipitated protein was removed by centrifugation (15 min, 4 °C, 4,000 g). Concentration of the remaining test […]
compound at the different time points was analyzed by HPLC-MS/MS (TSQ Quantum Access […]
MAX, Thermo Fisher, Dreieich, Germany) and used to determine half -life (t1/2) and intrinsic […]
Species profiling was conducted as above using 0.5 mg/mL pooled mouse, rat or minipig liver microsomes (Xenotech, Kansas City, USA) with 2 mM NADPH and 10 mM MgCl2 and testosterone, verapamil and ketoconazole as reference compounds. […]
Thermo Fisher, Dreieich, Germany) and used to determine half-life (t1/2).
Table S2: Additional in vitro ADMET data for selected dipeptides. n.d.: not determined.
Kinetic Liver S9 Clint [µL/mg/min] Plasma t1/2 [min] LogD7.4 […]
pH 7.4 [µM] Mouse Human Mouse Human

SMILES	mortality, body weight, clinical signs [1]	concentration at 3 days post infection [2]	sodium channel binding inhibition [3]	half-life at 1 µM [4]
CC(=O)c1ccc(NC(=O)[C@@H](NC(=O)[C@@H](CC(C)C)P(=O)(O)O)C(C)C)cc1 [(R)‐30]	no treatment–related mortality, nor effects on body weight or clinical signs	< 500 nM	91.1%	
CC(=O)c1ccc(NC(=O)[C@@H](NC(=O)C(CC(C)C)P(=O)(O)O)C(C)C)cc1 (stereo partly shown) [compound 30]				> 2 h
